From ChEMBL document CHEMBL1146317, “2-(2,2,2-Trifluoroethyl)-5,6-dichlorobenzimidazole derivatives as potent androgen receptor antagonists” (Bioorg Med Chem Lett, 2007)
The source made the active and inactive calls. The rule behind the calls is not given here.

Organism: Rattus norvegicus
Assay: Inhibition of testoterone-induced prostate weight in castrated immature Sprague-Dawley rat at 2 mg/day relative to control
Type: functional, Prostate gland
Settings: not given

| Structure (SMILES) | Inhibition [%] |
| --- | --- |
| Fc1c(F)c(F)c(Cn2c(CC(F)(F)F)nc3cc(Cl)c(Cl)cc32)c(F)c1F | 19 |
| O=[N+]([O-])c1ccccc1Cn1c(CC(F)(F)F)nc2cc(Cl)c(Cl)cc21 | 81 |
| O=C(Cn1c(CC(F)(F)F)nc2cc(Cl)c(Cl)cc21)c1ccc(Br)cc1 | 27 |
| O=C(Cn1c(CC(F)(F)F)nc2cc(Cl)c(Cl)cc21)c1ccccn1 | 76 |
| CCC(=O)Cn1c(CC(F)(F)F)nc2cc(Cl)c(Cl)cc21 | 64 |
| O=C(Cn1c(CC(F)(F)F)nc2cc(Cl)c(Cl)cc21)c1ccc(F)cc1 | 67 |
| FC(F)(F)Cc1nc2cc(Cl)c(Cl)cc2n1Cc1cccc(Cl)c1 | 35 |
| FC(F)(F)Cc1nc2cc(Cl)c(Cl)cc2n1Cc1ccc(OCc2ccccc2)cc1 | 46 |
| Fc1ccccc1Cn1c(CC(F)(F)F)nc2cc(Cl)c(Cl)cc21 | 77 |
| FC(F)(F)Cc1nc2cc(Cl)c(Cl)cc2n1Cc1ccccc1Br | 84 |
| FC(F)(F)Cc1nc2cc(Cl)c(Cl)cc2n1Cc1cccc(OC(F)(F)F)c1 | 26 |
| O=[N+]([O-])c1cccc(Cn2c(CC(F)(F)F)nc3cc(Cl)c(Cl)cc32)c1 | 49 |
| FC(F)(F)Cc1nc2cc(Cl)c(Cl)cc2n1Cc1ccccc1 | 79 |
| CCOC(=O)c1ccc(Cn2c(CC(F)(F)F)nc3cc(Cl)c(Cl)cc32)cc1 | 56 |
| O=C(Cn1c(CC(F)(F)F)nc2cc(Cl)c(Cl)cc21)c1cccc([N+](=O)[O-])c1 | 14 |
| FC(F)(F)Cc1nc2cc(Cl)c(Cl)cc2n1Cc1ccc(C(F)(F)F)cc1C(F)(F)F | 13 |
| CC(O)(CS(=O)(=O)c1ccc(F)cc1)C(=O)Nc1ccc(C#N)c(C(F)(F)F)c1 (centres undefined) [BICALUTAMIDE] | 70 |
| FC(F)(F)Cc1nc2cc(Cl)c(Cl)cc2n1Cc1ccc(C(F)(F)F)cc1 | 75 |
| Oc1ccc(Cn2c(CC(F)(F)F)nc3cc(Cl)c(Cl)cc32)cc1 | 28 |
| OC(c1nc2cc(Cl)c(Cl)cc2n1Cc1ccccn1)C(F)(F)F (centres undefined) | 84 |
| FC(F)(F)Cc1nc2cc(Cl)c(Cl)cc2n1Cc1ccccc1-c1ccncc1 | 42 |

| Structure (SMILES) | Inhibition [%] |
| --- | --- |
| Cc1cccc(Cn2c(CC(F)(F)F)nc3cc(Cl)c(Cl)cc32)c1 | 31 |
| O=C(Cn1c(CC(F)(F)F)nc2cc(Cl)c(Cl)cc21)c1cccs1 | 43 |
| N#Cc1ccccc1Cn1c(CC(F)(F)F)nc2cc(Cl)c(Cl)cc21 | 74 |
| CC(O)(c1nc2cc(Cl)c(Cl)cc2[nH]1)C(F)(F)F (centres undefined) | 74 |
| OC(O)(c1nc2cc(Cl)c(Cl)cc2n1Cc1ccccc1)C(F)(F)F | 85 |
| Fc1ccc(OCCn2c(CC(F)(F)F)nc3cc(Cl)c(Cl)cc32)cc1 | 40 |
| FC(F)(F)Cc1nc2cc(Cl)c(Cl)cc2n1Cc1cccc(C(F)(F)F)c1 | 74 |
| N#Cc1ccc(OCCn2c(CC(F)(F)F)nc3cc(Cl)c(Cl)cc32)cc1 | 86 |
| OC(O)(c1nc2cc(Cl)c(Cl)cc2[nH]1)C(F)(F)F | 94 |
| COCn1c(C(C)(O)C(F)(F)F)nc2cc(Cl)c(Cl)cc21 (centres undefined) | 88 |
| O=C(Cn1c(CC(F)(F)F)nc2cc(Cl)c(Cl)cc21)c1ccccc1 | 38 |
| COc1ccccc1Cn1c(CC(F)(F)F)nc2cc(Cl)c(Cl)cc21 | 51 |
| COc1ccc(Cn2c(CC(F)(F)F)nc3cc(Cl)c(Cl)cc32)cc1 | 51 |
| Fc1ccc(Cn2c(CC(F)(F)F)nc3cc(Cl)c(Cl)cc32)cc1 | 80 |
| OCCn1c(CC(F)(F)F)nc2cc(Cl)c(Cl)cc21 | 54 |
| O=[N+]([O-])c1ccc(Cn2c(CC(F)(F)F)nc3cc(Cl)c(Cl)cc32)cc1 | 61 |
| Cc1ccccc1Cn1c(CC(F)(F)F)nc2cc(Cl)c(Cl)cc21 | 73 |
| OC(c1nc2cc(Cl)c(Cl)cc2[nH]1)C(F)(F)F (centres undefined) | 96 |
| O=C(Cn1c(CC(F)(F)F)nc2cc(Cl)c(Cl)cc21)c1ccc([N+](=O)[O-])cc1 | 71 |
| FC(F)(F)Cc1nc2cc(Cl)c(Cl)cc2n1Cc1ccccc1-c1cccnc1 | 80 |
| FC(F)(F)Cc1nc2cc(Cl)c(Cl)cc2n1Cc1ccc(Cl)cc1 | 77 |

| Structure (SMILES) | Inhibition [%] |
| --- | --- |
| FC(F)(F)Cc1nc2cc(Cl)c(Cl)cc2n1Cc1ccccc1Cl | 90 |
| FC(F)(F)Cc1nc2cc(Cl)c(Cl)cc2n1Cc1ccccc1C(F)(F)F | 86 |
| FC(F)(F)Cc1nc2cc(Cl)c(Cl)cc2n1Cc1ccc(OC(F)(F)F)cc1 | 35 |
| FC(F)(F)Cc1nc2cc(Cl)c(Cl)cc2n1Cc1ccccc1-c1ccccn1 | 89 |
| FC(F)(F)Cc1nc2cc(Cl)c(Cl)cc2[nH]1 | 90 |
| Fc1cccc(OCCn2c(CC(F)(F)F)nc3cc(Cl)c(Cl)cc32)c1 | 22 |
| COc1ccccc1C(=O)Cn1c(CC(F)(F)F)nc2cc(Cl)c(Cl)cc21 | 10 |
| N#Cc1ccc(Cn2c(CC(F)(F)F)nc3cc(Cl)c(Cl)cc32)cc1 | 68 |
| FC(F)(F)Cc1nc2cc(Cl)c(Cl)cc2n1Cc1ccccc1-c1ccccc1 | 79 |
| FC(F)(F)Cc1nc2cc(Cl)c(Cl)cc2n1Cc1ccccn1 | 89 |
| Fc1cccc(Cn2c(CC(F)(F)F)nc3cc(Cl)c(Cl)cc32)c1 | 55 |
| FC(F)(F)Cc1nc2cc(Cl)c(Cl)cc2n1Cc1ccc(Br)cc1 | 75 |
| CC(O)(c1nc2cc(Cl)c(Cl)cc2n1CC#N)C(F)(F)F (centres undefined) | 54 |
| CS(=O)(=O)c1ccc(Cn2c(CC(F)(F)F)nc3cc(Cl)c(Cl)cc32)cc1 | 32 |
| O=C(O)c1ccc(Cn2c(CC(F)(F)F)nc3cc(Cl)c(Cl)cc32)cc1 | 38 |
| O=S(=O)(Cc1ccccc1Cn1c(CC(F)(F)F)nc2cc(Cl)c(Cl)cc21)c1ccccc1 | 74 |
| OC(c1nc2cc(Cl)c(Cl)cc2n1Cc1ccccc1)C(F)(F)F (centres undefined) | 49 |
| FC(F)(F)Cc1nc2cc(Cl)c(Cl)cc2n1Cc1ccc(SC(F)(F)F)cc1 | 13 |
| N#Cc1cccc(Cn2c(CC(F)(F)F)nc3cc(Cl)c(Cl)cc32)c1 | 70 |
| FC(F)(F)Cc1nc2cc(Cl)c(Cl)cc2n1CCOc1ccc(Cl)cc1 | 48 |
| O=C(Cn1c(CC(F)(F)F)nc2cc(Cl)c(Cl)cc21)c1ccc(Cl)cc1 | 33 |

Same assay, conditions: Prostate gland

| Structure (SMILES) | Activity |
| --- | --- |
| COc1cccc(Cn2c(CC(F)(F)F)nc3cc(Cl)c(Cl)cc32)c1 | inactive |
| Cn1c(C(C)(O)C(F)(F)F)nc2cc(Cl)c(Cl)cc21 (centres undefined) | inactive |
| CCn1c(C(C)(O)C(F)(F)F)nc2cc(Cl)c(Cl)cc21 (centres undefined) | inactive |
| COc1ccc(C(=O)Cn2c(CC(F)(F)F)nc3cc(Cl)c(Cl)cc32)c(OC)c1 | inactive |
| O=C(Cn1c(CC(F)(F)F)nc2cc(Cl)c(Cl)cc21)c1cccnc1 | inactive |
| COc1cccc(C(=O)Cn2c(CC(F)(F)F)nc3cc(Cl)c(Cl)cc32)c1 | inactive |

Organism: Rattus norvegicus
Assay: Inhibition of testoterone-induced prostate weight in castrated immature Sprague-Dawley rat at 1 mg/day relative to control
Type: functional, Prostate gland
Settings: not given

| Structure (SMILES) | Inhibition [%] |
| --- | --- |
| FC(c1nc2cc(Cl)c(Cl)cc2[nH]1)C(F)(F)F (centres undefined) | 81 |

Organism: Rattus norvegicus
Assay: Inhibition of testoterone-induced prostate weight in castrated immature Sprague-Dawley rat
Type: functional, Prostate gland
Settings: not given

| Structure (SMILES) | ID50 [mg/day] |
| --- | --- |
| O=[N+]([O-])c1ccccc1Cn1c(CC(F)(F)F)nc2cc(Cl)c(Cl)cc21 | 0.95 |
| O=C(Cn1c(CC(F)(F)F)nc2cc(Cl)c(Cl)cc21)c1ccccn1 | 0.47 |
| Fc1ccccc1Cn1c(CC(F)(F)F)nc2cc(Cl)c(Cl)cc21 | 0.82 |
| FC(F)(F)Cc1nc2cc(Cl)c(Cl)cc2n1Cc1ccccc1Br | 0.38 |
| FC(F)(F)Cc1nc2cc(Cl)c(Cl)cc2n1Cc1ccccc1 | 0.37 |
| CC(O)(CS(=O)(=O)c1ccc(F)cc1)C(=O)Nc1ccc(C#N)c(C(F)(F)F)c1 (centres undefined) [BICALUTAMIDE] | 0.23 |
| FC(F)(F)Cc1nc2cc(Cl)c(Cl)cc2n1Cc1cccc(C(F)(F)F)c1 | 0.4 |
| Fc1ccc(Cn2c(CC(F)(F)F)nc3cc(Cl)c(Cl)cc32)cc1 | 0.19 |
| FC(F)(F)Cc1nc2cc(Cl)c(Cl)cc2n1Cc1ccc(Cl)cc1 | 0.28 |
| FC(F)(F)Cc1nc2cc(Cl)c(Cl)cc2n1Cc1ccccc1Cl | 0.26 |
| FC(F)(F)Cc1nc2cc(Cl)c(Cl)cc2n1Cc1ccccc1-c1ccccn1 | 0.4 |
| FC(F)(F)Cc1nc2cc(Cl)c(Cl)cc2n1Cc1ccccc1-c1ccccc1 | 0.55 |
| FC(F)(F)Cc1nc2cc(Cl)c(Cl)cc2n1Cc1ccc(Br)cc1 | 0.13 |

Organism: Rattus norvegicus
Assay: Toxicity in castrated immature Sprague-Dawley rat at 2 mg/day
Settings: in vivo

| Structure (SMILES) | Activity |
| --- | --- |
| FC(F)(F)C(F)(F)c1nc2cc(Cl)c(Cl)cc2[nH]1 | Toxic |
